Several values for one entry are separate records, joined by “and”; a condition that tells them apart may be missing. Equal values may be shown once.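 Method: 48-hour compound exposure of cells in 96-well plates, five concentrations, linear interpolation of endpoints. At the GI50, growth is halved. TGI: concentration producing complete growth inhibition.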

Among the test systems are A549 NSCLC; HL-60(TB) leukemia; M14 melanoma; NCI-H226 lung; OVCAR-3 ovarian; OVCAR-5 ovarian; SK-MEL-5 melanoma; SK-OV-3 ovarian; U251 CNS; UO-31 renal.
What all share (assay): growth of human tumour cells (NCI), 48 h

With `COc1cc(OC)cc(Oc2cnc3cc(N)cc(N)c3n2)c1`, the GI50 with A549 NSCLC is 22.8 µM; with HL-60(TB) leukemia it was 5.68 µM; with M14 melanoma, 13.4 µM; in the assay with NCI-H226 lung it was 17.1 µM; with OVCAR-3 ovarian it was 1.83 µM; with OVCAR-5 ovarian, 15.5 µM. Besides, the GI50 in the assay on SK-MEL-5 melanoma is 15.3 µM; with SK-OV-3 ovarian, 23.7 µM; in the assay with U251 CNS it was 15.5 µM; in the assay with UO-31 renal it was 22.3 µM. The TGI is greater than 100 µM with A549 NSCLC; 28 µM in the assay with HL-60(TB) leukemia; 26.8 µM with M14 melanoma; 38 µM with NCI-H226 lung; 10.5 µM with OVCAR-3 ovarian; 30.4 µM in the assay with OVCAR-5 ovarian. Also, the TGI was determined as 29.3 µM in the assay on SK-MEL-5 melanoma, 74.5 µM in the assay with SK-OV-3 ovarian, 28.8 µM with U251 CNS and 46.8 µM in the assay on UO-31 renal.

For `O=C1Nc2ccccc2/C1=C\c1c(-c2ccccc2)nc2sccn12`, the GI50 in the assay on A549 NSCLC is 3.5 µM; in the assay with HL-60(TB) leukemia, 0.999 µM; in the assay with M14 melanoma, 1.98 µM; in the assay with NCI-H226 lung, 4.27 µM; in the assay with OVCAR-3 ovarian, 0.506 µM; in the assay with OVCAR-5 ovarian, 2.7 µM. The GI50 with SK-MEL-5 melanoma was 2.2 µM; with SK-OV-3 ovarian it was 2.91 µM; in the assay with U251 CNS, 2.25 µM; with UO-31 renal, 2.55 µM. For the same compound, the TGI in the assay on A549 NSCLC was greater than 100 µM; with HL-60(TB) leukemia, 7.33 µM; in the assay on M14 melanoma it was 7.61 µM; in the assay on NCI-H226 lung, 23 µM; with OVCAR-3 ovarian, 1.93 µM; in the assay on OVCAR-5 ovarian it was 11.9 µM. For the same compound, the TGI with SK-MEL-5 melanoma was found to be 7.89 µM; in the assay with SK-OV-3 ovarian, 12.7 µM; with U251 CNS, 7.96 µM; in the assay with UO-31 renal, 13.3 µM.

Take `O=C1C(=c2ccc(=C3C(=O)c4ccc([N+](=O)[O-])cc4[N+]3=O)cc2)N([O-])c2cc([N+](=O)[O-])ccc21`: the GI50 in the assay on A549 NSCLC, with HL-60(TB) leukemia, in the assay with M14 melanoma, with NCI-H226 lung, in the assay with OVCAR-3 ovarian and in the assay with OVCAR-5 ovarian was greater than 100 µM throughout. In addition, the GI50 in the assay on SK-MEL-5 melanoma, in the assay with SK-OV-3 ovarian, in the assay with U251 CNS and in the assay with UO-31 renal was greater than 100 µM throughout. The TGI in the assay on A549 NSCLC, in the assay on HL-60(TB) leukemia, in the assay on M14 melanoma, with NCI-H226 lung, in the assay on OVCAR-3 ovarian and with OVCAR-5 ovarian was greater than 100 µM each time. In addition, the TGI in the assay with SK-MEL-5 melanoma, in the assay on SK-OV-3 ovarian, in the assay with U251 CNS and with UO-31 renal was greater than 100 µM in each case.

`Cc1ccccc1C1=C(c2cn(C)c3ccccc23)C(=O)NC1=O`: the GI50 in the assay on A549 NSCLC is 12.2 µM; with HL-60(TB) leukemia it was 10.8 µM; in the assay with M14 melanoma, greater than 25 µM; with NCI-H226 lung it was 11.6 µM; in the assay on OVCAR-3 ovarian, 10.8 µM; in the assay with OVCAR-5 ovarian, greater than 23.6 µM. Also, the GI50 was 16 µM in the assay with SK-MEL-5 melanoma, greater than 25 µM with SK-OV-3 ovarian, 13.2 µM in the assay on U251 CNS and greater than 25 µM with UO-31 renal. In addition, the TGI in the assay on A549 NSCLC, in the assay on HL-60(TB) leukemia, with M14 melanoma, with NCI-H226 lung, in the assay on OVCAR-3 ovarian and in the assay with OVCAR-5 ovarian was greater than 25 µM throughout. Besides, the TGI with SK-MEL-5 melanoma, with SK-OV-3 ovarian, in the assay on U251 CNS and with UO-31 renal was greater than 25 µM each time.

As for `Oc1cc(N2CC2)c(O)cc1N1CC1`, the GI50 with A549 NSCLC was 0.783 µM; in the assay on HL-60(TB) leukemia, 0.238 µM; with M14 melanoma, 0.511 µM; in the assay with NCI-H226 lung it was 1.63 µM; in the assay with OVCAR-3 ovarian, 0.839 µM; in the assay with OVCAR-5 ovarian it was 1.88 µM. Further, the GI50 in the assay on SK-MEL-5 melanoma is 0.874 µM; in the assay on SK-OV-3 ovarian, 1.54 µM; in the assay on U251 CNS it was 0.577 µM; in the assay with UO-31 renal, 0.164 µM. Also, the TGI turned out to be 10.7 µM in the assay with A549 NSCLC; 2.14 µM in the assay on HL-60(TB) leukemia; 1.93 µM with M14 melanoma; 4.59 µM with NCI-H226 lung; 4.46 µM with OVCAR-3 ovarian; 9.93 µM in the assay with OVCAR-5 ovarian. For the same compound, the TGI in the assay with SK-MEL-5 melanoma was determined as 2.99 µM; with SK-OV-3 ovarian, 8.77 µM; in the assay on U251 CNS, 10.7 µM; in the assay on UO-31 renal, 0.818 µM.

Regarding `N#Cc1c(NCc2ccccc2)nc(NCc2ccccc2)c(C#N)c1-c1ccc(Cl)cc1`, the GI50 with A549 NSCLC was > 50 µM and 51.5 µM; in the assay with HL-60(TB) leukemia, greater than 50 µM; in the assay with M14 melanoma, > 50 µM and 53.5 µM; in the assay on NCI-H226 lung it was > 50 µM and 25.6 µM; in the assay on OVCAR-3 ovarian, > 50 µM and 34.4 µM; with OVCAR-5 ovarian, > 50 µM and 77.3 µM. The GI50 in the assay on SK-MEL-5 melanoma is greater than 100 µM; with SK-OV-3 ovarian, greater than 100 µM; in the assay on U251 CNS, > 50 µM and 19.2 µM; in the assay with UO-31 renal it was greater than 100 µM. For the same compound, the TGI in the assay with A549 NSCLC is greater than 100 µM; with HL-60(TB) leukemia it was greater than 50 µM; in the assay on M14 melanoma it was greater than 100 µM; in the assay with NCI-H226 lung, > 50 µM and 81.4 µM; with OVCAR-3 ovarian, greater than 100 µM; in the assay with OVCAR-5 ovarian, greater than 100 µM. Moreover, the TGI was greater than 100 µM with SK-MEL-5 melanoma; greater than 100 µM in the assay with SK-OV-3 ovarian; > 50 µM and 40.8 µM in the assay with U251 CNS; greater than 100 µM with UO-31 renal.

As to `CS(=O)(=O)N1CCC(n2c(=O)c(Oc3ccc(F)cc3F)cc3cnc(NC4CCOCC4)nc32)CC1`, the GI50 with A549 NSCLC was greater than 25 µM; with HL-60(TB) leukemia, greater than 25 µM; with M14 melanoma, greater than 25 µM; in the assay with NCI-H226 lung it was greater than 22.5 µM; in the assay on OVCAR-3 ovarian, greater than 25 µM; with OVCAR-5 ovarian it was greater than 25 µM. Moreover, the GI50 in the assay with SK-MEL-5 melanoma was greater than 25 µM; with SK-OV-3 ovarian, greater than 17.5 µM; in the assay with U251 CNS it was greater than 25 µM; in the assay with UO-31 renal, 16.9 µM. Further, the TGI with A549 NSCLC, with HL-60(TB) leukemia, in the assay with M14 melanoma, in the assay on NCI-H226 lung, in the assay with OVCAR-3 ovarian and in the assay with OVCAR-5 ovarian was greater than 25 µM throughout. The TGI with SK-MEL-5 melanoma, in the assay with SK-OV-3 ovarian, in the assay on U251 CNS and with UO-31 renal was greater than 25 µM throughout.

For the origin of these results see PubChem BioAssay (NCI).
